This is an account of results in patent US9574188B2, “DNA restriction library tagging and analysis” (Harborgen Biotech LLC, priority 2014, dated 2017).

This assay has as its system RKO cell line. Nature of the assay: Effect of methylation inhibitor on global methylation percentage (restriction library qPCR). The format is cell-based. Here is the method:
The following steps are performed to create (including amplify) the restriction library, and measure methylation level: • 1. Add equal amount of a genomic DNA into two tubes containing the Msp I restriction library making system or Hpa II restriction library making system. • 2. Incubate the two tubes in PCR instrument. Repeat the following thermal cycle 100 times: 22 degree Celsius for 2 minutes, 16 degree 2 minutes, and 4 degree 2 minutes.
• Hpa II, Msp I and Cla I have more than 75% activity left at 22 degree. The generated restriction fragments and adaptors have the compatible CG-5′ overhang that contain phosphate at 5′ ends. At 4 degree Celsius, the compatible overhangs anneal together then T4 DNA ligases join the two annealed ends. • 3. […] Consequently the hetero-ligation is no longer recognizable by Cla I, Msp I or Hpa II. • 4. […] The proportion of hetero-ligation products becomes higher and higher, while the proportion of self-ligation products becomes lower and lower accompanied with repeating the cycle digestion-ligation reaction. • 6. All restriction sites in the Msp I restriction library making system disappear after hetero-ligation between restriction fragments and the adapters at reaction end, but not the methylated restriction sites (CCGG) in Hpa II restriction library making system. • 7. […]
(In general: Quantitative PCR measures a nucleic acid by following its amplification.)

SMILES strings stand for the structures.

For `Nc1ncn([C@H]2C[C@H](O)[C@@H](CO)O2)c(=O)n1` [DAC, 5-aza-2′ deoxycytidine], the “methylation percentage of RKO cells after methylation inhibitor treatment” value (5 μM for 3 days prior to harvest, decreased from 96.7% (before treatment)) is reported as 35.6%. Further, the “effect on the methylation level of RKO cell line” value (FIG. 9 legend) is on record as “significantly affected”.
